Experiment in all cases: ANS Fluorescence Displacement Assay
The target of assay [1] is Fatty acid-binding protein, liver [T94A] (Homo sapiens, UniProt P07148, T94A). The procedure:
(§1) A solution of the L-FABP (500 nM) and ANS (35 µM) was titrated with phytanic acid (0-6.4 µM) or fenofibrate (0-6 µM for the rat L-FABP and 0-4 µM for the human L-FABP) or fenofibric acid (0-300 µM for the rat L-FABP and 0-48 µM for the human L-FABP).

Assay [2] deals with T1, Fatty acid-binding protein, liver (Homo sapiens, UniProt P07148).
T1 sequence (P07148 whole entry): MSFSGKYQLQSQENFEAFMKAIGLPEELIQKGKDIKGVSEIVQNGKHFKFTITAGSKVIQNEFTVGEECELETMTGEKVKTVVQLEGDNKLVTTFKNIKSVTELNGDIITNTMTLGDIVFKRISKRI
Here is the method: as §1

Assay [3] deals with T2, Fatty acid-binding protein, liver (Rattus norvegicus, UniProt P02692).
T2 sequence (P02692 whole entry): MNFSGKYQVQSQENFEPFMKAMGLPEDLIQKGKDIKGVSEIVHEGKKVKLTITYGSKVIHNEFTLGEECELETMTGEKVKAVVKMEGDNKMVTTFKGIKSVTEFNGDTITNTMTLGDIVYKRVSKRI
The procedure:
as §1

Chain of Fatty acid-binding protein, liver [T94A] (P07148 whole entry T94A): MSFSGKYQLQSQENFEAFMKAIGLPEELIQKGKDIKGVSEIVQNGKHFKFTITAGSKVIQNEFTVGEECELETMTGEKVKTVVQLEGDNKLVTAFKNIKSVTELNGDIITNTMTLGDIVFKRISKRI

Turning to `CC(C)CCC[C@H](C)CCC[C@H](C)CCC[C@@H](C)CC(=O)O` [3,7,11,15-tetramethylhexadecanoic acid], the Ki in assay [1] is 38 nM; in assay [2], 35 nM; in assay [3] it was 37 nM.
Consider `CC(C)OC(=O)C(C)(C)Oc1ccc(C(=O)c2ccc(Cl)cc2)cc1` [Finofibrate], for which the results for the Ki in assay [1], in assay [2] and in assay [3] were 15 nM, 15 nM and 100 nM, respectively.
As to `CC(C)(Oc1ccc(C(=O)c2ccc(Cl)cc2)cc1)C(=O)O` [alpha-1081], the Ki came to 310 nM in assay [1], 250 nM in assay [2] and 5800 nM in assay [3].

What is called Ki is a dissociation constant, usually derived from enzyme kinetics or from competition with a known ligand. A higher Ki goes with a looser hold on the target.

For the origin of these results see BindingDB's records for doi:10.1021/bi401014k (Texas A&M University, 2013).
